Values quoted from earlier work as cited in patent US20210251906A1, “[…]-RELEASE FORMULATIONS” (Mylan Inc., priority 2018, published 2021).

Assays:
[1] = in vivo
[2] = in water and in basic and acidic aqueous solutions

CC(C)C[C@H](CN)CC(=O)O [Pregabalin, (S)-3-(aminomethyl)-5-methylhexanoic acid]
Elimination half-life [1]: about 6.3 hours | Solubility [2]: freely soluble
